Counter-ions that a name gives are not always drawn.

For 22 compounds, IC50 results are on record in patent US12060347B2 (BRISTOL-MYERS SQUIBB COMPANY, priority 2016, dated 2024).

In the experiment the target is T1, human PAR4 (Homo sapiens, UniProt Q96RI0).
T1 construct: expressed in transfected cells; host or cells: HEK293 PAR4 Clone 1.2A (BMS Arctic ID 383940)
T1 sequence (Q96RI0 18-385): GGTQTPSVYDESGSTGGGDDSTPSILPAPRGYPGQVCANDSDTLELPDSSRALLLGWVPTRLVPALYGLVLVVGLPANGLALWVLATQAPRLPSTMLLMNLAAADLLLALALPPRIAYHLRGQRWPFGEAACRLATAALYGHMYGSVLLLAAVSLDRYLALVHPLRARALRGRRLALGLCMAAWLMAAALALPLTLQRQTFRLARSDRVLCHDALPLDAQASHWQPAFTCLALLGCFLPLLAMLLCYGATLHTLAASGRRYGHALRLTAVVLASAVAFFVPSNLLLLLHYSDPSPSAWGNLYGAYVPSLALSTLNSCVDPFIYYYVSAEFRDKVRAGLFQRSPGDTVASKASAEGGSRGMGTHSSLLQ
As to the kind of experiment: PAR4 FLIPR assay: antagonism of agonist-peptide-induced calcium mobilization in PAR4-expressing HEK293 cells. Format: cell-based. The note with it: H-Ala-Phe(4-F)-[…]NH2-induced intracellular calcium mobilization, 11-point curves. On the technique in general: Calcium flux is commonly read through the fluorescence of an indicator in the cells.

On to `CCOc1cnc2c(-c3nc4cc(F)c(O[C@@H](C)[C@@H](C)OC(=O)Nc5cnc(C)nc5)cc4s3)cc(C)cc2n1` [Example 389, (2R,3S)-3-((2-(2-ethoxy-7-methylquinoxalin-5-yl)-5-fluorobenzo[d]thiazol-6-yl)oxy)butan-2-yl (2-methylpyrimidin-5-yl)carbamate], for which the concentration for half-maximal inhibition (IC50) came to 0.4 nM.

Regarding `COc1cnc2c(-c3nc4cc(F)c(OC[C@@H](C)OC(=O)Nc5ccc(CC(C)(C)O)nc5)cc4s3)cc(C)cc2n1` [Example 557, (R)-1-((5-fluoro-2-(2-methoxy-7-methylquinoxalin-5-yl)benzo[d]thiazol-6-yl)oxy)propan-2-yl (6-(2-hydroxy-2-methylpropyl)pyridin-3-yl)carbamate], the IC50 came to 0.7 nM.

In the case of `COc1cnc2c(-c3nc4cc(F)c(OC[C@@H](C)OC(=O)Nc5ccc(C(=O)NCC(C)(C)OP(=O)(O)O)nc5)cc4s3)cc(C)cc2n1` [Example 530, (R)-1-((5-fluoro-2-(2-methoxy-7-methylquinoxalin-5-yl)benzo[d]thiazol-6-yl)oxy) propan-2-yl (6-((2-methyl-2-(phosphonooxy)propyl)carbamoyl)pyridin-3-yl)carbamate, TFA], the IC50 turned out to be 1.8 nM.

`COCc1cnc2c(-c3nc4c(Cl)cc(OC)cc4s3)cc(C)cc2n1` [Example 93, 4-chloro-6-methoxy-2-(2-(methoxymethyl)-7-methylquinoxalin-5-yl)benzo[d]thiazole]: the IC50 came out at 0.3 nM.

As for `Cc1cc(-c2nc3cccc(OCCOc4ccccc4)c3s2)c2ncc(OC(F)F)nc2c1` [Example 17, 2-(2-(difluoromethoxy)-7-methylquinoxalin-5-yl)-7-(2-phenoxyethoxy)benzo[d]thiazole], the 50% inhibitory concentration (IC50) turned out to be 13 nM.

In the case of `COCc1cnc2c(-c3nc4c(Cl)cc(F)cc4s3)cc(C)cc2n1` [Example 266, 4-chloro-6-fluoro-2-(2-(methoxymethyl)-7-methylquinoxalin-5-yl)benzo[d]thiazole], the IC50 came out at 2.2 nM.

Take `COc1cnc2c(-c3nc4c(Cl)c(F)c(OCCOC(=O)Nc5ccc6[nH]ccc6c5)cc4s3)cc(C)cc2n1` [Example 360, 2-((4-chloro-5-fluoro-2-(2-methoxy-7-methylquinoxalin-5-yl)benzo[d]thiazol-6-yl)oxy)ethyl 1H-indol-5-ylcarbamate]: the IC50 is 160 nM.

For `COc1cnc2c(-c3nc4cc(F)c(OCCOC(=O)Nc5ccc6[nH]c(=O)oc6c5)cc4s3)cc(C)cc2n1` [Example 343, 2-((5-fluoro-2-(2-methoxy-7-methylquinoxalin-5-yl)benzo[d]thiazol-6-yl)oxy)ethyl (2-oxo-2,3-dihydrobenzo[d]oxazol-6-yl)carbamate], the IC50 stood at 0.7 nM.

For the compound `COCc1cnc2c(-c3nc4c(C)cc(OC)cc4s3)cc(OC(F)(F)F)cc2n1` [Example 203, 6-methoxy-2-(2-(methoxymethyl)-7-(trifluoromethoxy)quinoxalin-5-yl)-4-methylbenzo[d] thiazole], the IC50 turned out to be 4.1 nM.

Take `COCc1cnc2c(-c3nc4ccc(F)cc4s3)cc(C)cc2n1` [Example 272, 6-fluoro-2-(2-(methoxymethyl)-7-methylquinoxalin-5-yl)benzo[d]thiazole]: the concentration for half-maximal inhibition (IC50) came out at 3.2 nM.

For `COc1cnc2c(-c3nc4cc(F)c(O[C@@H](C)[C@@H](C)OC(=O)Nc5ccnc(O[C@H](C)CO)c5)cc4s3)cc(C)cc2n1` [Example 549, (2R,3S)-3-((5-fluoro-2-(2-methoxy-7-methylquinoxalin-5-yl)benzo[d]thiazol-6-yl)oxy)butan-2-yl (2-(((R)-1-hydroxypropan-2-yl)oxy)pyridin-4-yl)carbamate], the half-maximal inhibitory concentration (IC50) amounted to 1 nM.

Take `COc1cnc2c(-c3nc4cc(F)c(O[C@@H](C)[C@@H](C)OC(=O)Nc5ccc(C(C)(C)O)nc5)nc4s3)cc(C)cc2n1` [Example 765, (2R,3S)-3-((6-fluoro-2-(2-methoxy-7-methylquinoxalin-5-yl)thiazolo[5,4-b]pyridin-5-yl)oxy)butan-2-yl (6-(2-hydroxypropan-2-yl)pyridin-3-yl)carbamate]: the concentration for half-maximal inhibition (IC50) was 0.8 nM.

As to `COCc1cnc2c(-c3nc4c(C)cc(OC)cc4s3)cc(Cl)cc2c1` [Example 625, 2-(6-chloro-3-(methoxymethyl)quinolin-8-yl)-6-methoxy-4-methylbenzo[d]thiazole], the 50% inhibitory concentration (IC50) amounted to 1.8 nM.

Consider `COc1cnc2c(-c3nc4c(C)cc(OCCNS(=O)(=O)c5ccc(F)cc5)cc4s3)cc(C(C)(C)O)cc2n1` [Example 242, 4-fluoro-N-(2-((2-(7-(2-hydroxypropan-2-yl)-2-methoxyquinoxalin-5-yl)-4-methylbenzo[d]thiazol-6-yl)oxy)ethyl)benzenesulfonamide], for which the 50% inhibitory concentration (IC50) amounted to 120 nM.

Take `COC(=O)COc1cc2sc(-c3cc(C)cc4nc(OC)cnc34)nc2c(Cl)c1F` [Example 287, methyl 2-((4-chloro-5-fluoro-2-(2-methoxy-7-methylquinoxalin-5-yl)benzo[d]thiazol-6-yl)oxy)acetate]: the half-maximal inhibitory concentration (IC50) was found to be 8.5 nM.

Take `COCc1cnc2c(-c3nc4c(C)cc(OCCNS(=O)(=O)c5ccccc5F)cc4s3)cc(C)cc2n1` [Example 96, 2-fluoro N-(2-(2-(2-(methoxymethyl)-7-methylquinoxalin-5-yl)-4-methylbenzo[d]thiazol-6-yloxy)ethyl)benzenesulfonamide]: the IC50 worked out at 1.1 nM.

Turning to `COCc1cnc2c(-c3nc4c(C)c(C)c(OC(C)C(C)O)cc4s3)cc(C)cc2n1` (mixture of isomers) [Example 323, 3-((2-(2-(methoxymethyl)-7-methylquinoxalin-5-yl)-4,5-dimethylbenzo[d]thiazol-6-yl)oxy)butan-2-ol], the half-inhibitory concentration (IC50) is 15 nM.

As for `COc1cc(C(O)C2CCOCC2)c2nc(-c3cc(C)cc4nc(OC)cnc34)sc2c1` (stereo not shown) [Example 663, (6-methoxy-2-(2-methoxy-7-methylquinoxalin-5-yl)benzo[d]thiazol-4-yl)(tetrahydro-2H-pyran-4-yl)methanol], the IC50 came out at 7 nM.

On to `CNC(=O)c1cnc2c(-c3nc4cc(F)c(O[C@@H](C)[C@@H](C)OC(=O)Nc5cnc(C)nc5)cc4s3)cc(C)cc2n1` [Example 614, (2R,3S)-3-((5-fluoro-2-(7-methyl-2-(methylcarbamoyl)quinoxalin-5-yl)benzo[d]thiazol-6-yl)oxy)butan-2-yl (2-methylpyrimidin-5-yl)carbamate], for which the IC50 was 30 nM.

For the compound `COCc1cnc2c(-c3nc4c(C)cc(OC)cc4s3)cc(C(F)(F)F)cc2n1` [Example 208, 6-methoxy-2-(2-(methoxymethyl)-7-(trifluoromethyl)quinoxalin-5-yl)-4-methylbenzo[d]thiazole], the half-inhibitory concentration (IC50) is 1.1 nM.

`COc1cnc2c(-c3nc4cc(F)c(O[C@@H](C)[C@@H](C)OC(=O)Nc5cnc(CCO)nc5)cc4s3)cc(C)cc2n1` [Example 565, (2R,3S)-3-((5-fluoro-2-(2-methoxy-7-methylquinoxalin-5-yl)benzo[d]thiazol-6-yl)oxy)butan-2-yl (2-(2-hydroxyethyl)pyrimidin-5-yl)carbamate]: the IC50 was determined as 3 nM.

Turning to `COCc1cnc2c(-c3nc4c(C)c(C)c(OC(C)CO)cc4s3)cc(C)cc2n1` (racemic) [Example 321, 2-((2-(2-(methoxymethyl)-7-methylquinoxalin-5-yl)-4,5-dimethylbenzo[d]thiazol-6-yl)oxy)propan-1-ol], the half-maximal inhibitory concentration (IC50) stood at 3.1 nM.

A word on the IC50: it is the concentration needed to halve the response being measured.
